{"source": "patent US12448655B2", "about": "“Antibiotic susceptibility of microorganisms and related methods and systems” (CALIFORNIA INSTITUTE OF TECHNOLOGY, priority 2017, dated 2025)", "key": {"Ng isolates": {"tested_on": "Ng isolates", "test": "Percentage of cell lysis due to enhancer alone (Example 33)", "type": "cell-based, Neisseria gonorrhoeae", "conditions": "Ng clinical isolates (12 for BAC); no antibiotic", "procedure": "Enhancer use. Working cultures of Ng isolates were prepared as described in “Ng culture preparation.” Initial exposure was performed by incubating 100 μL control and treated samples at 37° C. in PCR tube strips on a BioRad C1000 Thermal Cycler. Treated samples consisted of 75 μL MHB, 5 μL NaHCO3 (100 mM), 5 μL DNase I (2 U/μL), 5 μL PEN or CRO (20 μg/mL), and […] working Ng isolate culture. ABX were replaced with NF—H2O in control samples. After 15 min of incubation, samples were vortexed and quick-spun, and aliquots of all samples were transferred to the enhancement step as described below. After the enhancement step, 5 or 10 μL of all samples were extracted by diluting 10× in QuickExtract DNA Extraction Solution (Lucigen) and heating for 6 min at 65° C. followed by 4 min at 98° C. on a BioRad C1000 Thermal Cycler. All sample handling following ABX exposure was performed using a multichannel pipette; qPCR and calculation of % accessibility was performed as described above.\nOsmotic and autolytic enhancing steps were performed in 100 μL volumes. The osmotic enhancing step consisted of 89.75 μL NF—H2O, 4.75 μL DNase I (2 U/μL), 0.5 μL CaCl (100 mM, 0.2-μM filtered), and 5 μL initial exposure samples. […]"}, "Neisseria gonorrhoeae": {"tested_on": "Neisseria gonorrhoeae", "test": "Minimum inhibitory concentrations (MICs) of Neisseria gonorrhoeae clinical isolates", "type": "cell-based", "procedure": "Isolates and agar-dilution MIC testing. Isolates were provided by the University of Washington Neisseria Reference Laboratory and the Centers for Disease Control (CDC) Antibiotic Resistance Isolate Bank Neisseria gonorrhoeae panel (SINuca-Table). MICs of the CDC AR Isolate Bank are reported by the CDC [10], and MIC of all other isolates were determined by agar dilution according to the Clinical and Laboratory Standards Institute (CLSI) guidelines."}, "Escherichia coli": {"tested_on": "Escherichia coli", "test": "Minimum inhibitory concentrations (MICs) of Enterobacteriaceae clinical isolates", "type": "cell-based", "excerpt": "(§1) Clinical isolates referenced, minimum inhibitory concentrations (MICs), and categorical susceptibility based on CLSI breakpoints The below list of organisms are examples of clinically-relevant susceptible and resistant Enterobacteriaceae clinical isolates. Minimum inhibitory concentrations (MICs) are provided in μg/mL for the antibiotics listed.\n(§2) Isolates, growth conditions, and antibiotic exposure conditions. 25 de-identified clinical isolates were obtained from the UCLA Clinical Microbiology Laboratory (CML) and the CDC's Enterobacteriaceae Carbapenem Breakpoint panel. In the case of isolates obtained from the UCLA CML, MICs were determined as described previously. Genotypic testing of the two Ec and two Kp isolates selected for their lack of known β-lactamase genes was performed by UCLA CML using a previously published assay and separately at the Keck School of Medicine of USC using the FDA-approved Cepheid Xpert® Carba-R test. Whole genome sequencing of the single Ebs isolate selected for its lack of known resistance genes was performed by the CDC [3]. All isolates were stored as glycerol stocks at −80° C. Glycerol stocks were streaked onto Trypticase Soy Agar with 5% sheep's blood (Becton Dickinson, Franklin Lakes, NJ, USA) and grown overnight at 37° C. Prior to experiments, a small clump of cells was resuspended in 2 mL Brain Heart Infusion Broth (BHI, Becton Dickinson) at 37° C.+5% CO2 with 500 rpm shaking for 2 to 4 h until visibly turbid. OD600 of the cultures was then measured, and working cultures prepared at an OD600 of 0.01-0.07 and grown for 50-145 min at 37° C.+5% CO2 with 500 rpm. Working cultures were then diluted 10× into control and treated aliquots for antibiotic exposure. For validation experiments, antibiotic exposure was performed in 100 μL volumes consisting of 80 μL Mueller Hinton II Broth (Becton Dickinson), 5 μL nuclease-free H2O (NF—H2O), 5 μL 20× antibiotic stock solution, and 10 μL of working culture. In control aliquots, antibiotic stock solution was replaced with NF—H2O. For filtration experiments, antibiotic exposure was performed in 100 μL volumes consisting of 65 μL Mueller Hinton II Broth (Becton Dickinson), 21 μL nuclease-free H2O (NF—H2O), 4 μL 25× antibiotic stock solution, and 10 μL of working culture. In control aliquots, antibiotic stock solution was replaced with NF—H2O."}, "Klebsiella pneumoniae": {"tested_on": "Klebsiella pneumoniae", "test": "Minimum inhibitory concentrations (MICs) of Enterobacteriaceae clinical isolates", "type": "cell-based", "excerpt": "as §1, §2"}, "E. coli isolates [1]": {"tested_on": "E. coli isolates", "test": "Quantification of DNA release following antibiotic exposure, filtration and ddPCR (Example 27)", "type": "cell-based, Escherichia coli", "set-up": "dose or concentration left out as unconfirmed", "conditions": "15 min exposure, 0.22 μm filtration, ddPCR", "procedure": "Filtration experiments. Filtration experiments were performed using E. coli isolates exposed to 0.5 μg/mL ertapenem for 15 min. Immediately following exposure, cultures were passed through 0.22 μm, 1.5 mL cellulose acetate centrifuge tube filters (Corning Costar Spin-X, Corning, NY) by adding 50 μL of sample to the filter and centrifuging for 4 minutes at 1000 ref. DNA was extracted from both the feed and filtrate using QuickExtract DNA Extraction Solution (Lucigen, Middleton, WI, USA). Samples were diluted 10× into extraction buffer and extracted according to manufacturer instructions. The concentration of the single copy E. coli uidA gene was then quantified in the feed and filtrate extractions. The percentage of E. coli DNA in the filtrate was calculated as the filtrate concentration divided by the feed concentration. Droplet digital PCR (ddPCR) was performed using QX200 ddPCR Supermix for EvaGreen (BioRad). 10% of the final reaction volume was template. Published primers targeting the uidA gene in E. coli were used at a final concentration of 500 nM. Cycling conditions consisted of 5.0 min at 95° C., followed by 40 cycles of 95° C. for 30 sec, 60° C. for 30 sec, and 72° C. for 30 sec., with final dye stabilization steps of 4° C. for 5.0 min followed by 90° C. for 5.0 min.\nTo investigate the mechanism of pol-aAST, experiments were performed to separate free NAs from NAs contained within structurally intact cells or associated with cell debris. Susceptible and resistant clinical isolates were exposed to β-lactams for 15 min, then filtered through […] filters to remove cells from free NAs. NAs in the sample and eluate were then quantified using droplet digital PCR (ddPCR)."}, "E. coli isolates [2]": {"tested_on": "E. coli isolates", "test": "pol-aAST, comparison of LAMP and qPCR amplification (Example 26)", "type": "cell-based, Escherichia coli", "conditions": "0.5 μg/mL ertapenem for 15 min", "procedure": "Comparison of amplification methods. In order to compare amplification using LAMP and PCR, E. coli isolates were exposed to 0.5 μg/mL ertapenem for 15 min. Samples were then transferred directly into either PCR or LAMP mix on ice. Amplification was started immediately. Quantitative PCR (qPCR) was performed on a Roche LightCycler 96 using SsoFast EvaGreen Supermix (BioRad, Hercules, CA, USA). 10 μL reactions were used. 10% of the final reaction volume was template. Published primers were used at a final concentration of 500 nM. Cycling conditions consisted of 3.0 min at 95° C., followed by 35 cycles of 95° C. for 10 sec, 60° C. for 10 sec, and 72° C. for 15 sec. Fluorescence was measured using the SYBR Green channel after each 72° C. extension step. LAMP was performed on a BioRad CFX96 using the following conditions: 10 μL reaction volume containing 1× Isothermal Reaction Buffer II (NEB), 5 mM MgSO4 (NEB), 1.4 mM dNTPs (NEB), 320 U/mL Bst 3.0 (NEB), and 2 μM Syto-9 (Thermo Fisher). 10% of the reaction volume was template. Primer sequences and concentrations have been described previously. Cycling conditions consisted of 2.0 min at 12° C. (while lid was heating), followed by 120 cycles of 70° C. for 10 sec. Fluorescence was measured using the SYBR Green channel every 10 sec (after each cycle).\nTo test this, pol-aAST is performed in this example using LAMP, and quantitative PCR (qPCR) (FIG. 48). […]"}}}
{"compound": "benzalkonium chloride [BAC]", "values": [{"measurement": "average percentage lysis by 5-min incubation with the enhancer alone", "setting": "Ng isolates", "value": 91.6, "unit": "%"}]}
{"compound": "C=CC1=C(C(=O)O)N2C(=O)[C@@H](NC(=O)/C(=N\\OCC(=O)O)c3csc(N)n3)[C@H]2SC1", "note": "[CFM, cefixime]", "values": [{"measurement": "Antibiotic MICs", "setting": "Neisseria gonorrhoeae; isolate ng_1", "value": "≤0.015", "unit": "µg/mL"}, {"measurement": "Antibiotic MICs", "setting": "Neisseria gonorrhoeae; isolate ng_2", "value": "≤0.015", "unit": "µg/mL"}, {"measurement": "Antibiotic MICs", "setting": "Neisseria gonorrhoeae; isolate ng_3", "value": "≤0.015", "unit": "µg/mL"}, {"measurement": "Antibiotic MICs", "setting": "Neisseria gonorrhoeae; isolate ng_4", "value": 0.060, "unit": "µg/mL"}, {"measurement": "Antibiotic MICs", "setting": "Neisseria gonorrhoeae; isolate ng_5", "value": 0.030, "unit": "µg/mL"}, {"measurement": "Antibiotic MICs", "setting": "Neisseria gonorrhoeae; isolate ng_6", "value": 0.015, "unit": "µg/mL"}, {"measurement": "Antibiotic MICs", "setting": "Neisseria gonorrhoeae; isolate ng_12", "value": 0.030, "unit": "µg/mL"}, {"measurement": "Antibiotic MICs", "setting": "Neisseria gonorrhoeae; isolate ng_15", "value": "≤0.015", "unit": "µg/mL"}, {"measurement": "Antibiotic MICs", "setting": "Neisseria gonorrhoeae; isolate ng_16", "value": "≤0.015", "unit": "µg/mL"}, {"measurement": "Antibiotic MICs", "setting": "Neisseria gonorrhoeae; isolate ng_17", "value": "≤0.015", "unit": "µg/mL"}, {"measurement": "Antibiotic MICs", "setting": "Neisseria gonorrhoeae; isolate ng_18", "value": 0.060, "unit": "µg/mL"}, {"measurement": "Antibiotic MICs", "setting": "Neisseria gonorrhoeae; isolate ng_19", "value": 0.030, "unit": "µg/mL"}, {"measurement": "Antibiotic MICs", "setting": "Neisseria gonorrhoeae; isolate ng_20", "value": "≤0.015", "unit": "µg/mL"}, {"measurement": "Antibiotic MICs", "setting": "Neisseria gonorrhoeae; isolate ng_30", "value": 1.000, "unit": "µg/mL"}, {"measurement": "Antibiotic MICs", "setting": "Neisseria gonorrhoeae; isolate ng_41", "value": 0.250, "unit": "µg/mL"}, {"measurement": "Antibiotic MICs", "setting": "Neisseria gonorrhoeae; isolate ng_44", "value": "≤0.015", "unit": "µg/mL"}]}
{"compound": "CC1(C)S[C@@H]2[C@H](NC(=O)[C@H](N)c3ccccc3)C(=O)N2[C@H]1C(=O)O", "note": "[AMP, ampicillin]", "values": [{"measurement": "Antibiotic MICs", "setting": "Escherichia coli; isolate Ec_1", "value": 4, "unit": "µg/mL"}, {"measurement": "Antibiotic MICs", "setting": "Escherichia coli; isolate Ec_2", "value": "<=2 μg/mL"}, {"measurement": "Antibiotic MICs", "setting": "Escherichia coli; isolate Ec_3", "value": "<=2 μg/mL"}, {"measurement": "Antibiotic MICs", "setting": "Escherichia coli; isolate Ec_4", "value": "<=2 μg/mL"}, {"measurement": "Antibiotic MICs", "setting": "Escherichia coli; isolate Ec_39", "value": ">=32 μg/mL"}, {"measurement": "Antibiotic MICs", "setting": "Escherichia coli; isolate Ec_40", "value": ">=32 μg/mL"}, {"measurement": "Antibiotic MICs", "setting": "Klebsiella pneumoniae; isolate Kp_7", "value": ">32", "unit": "µg/mL"}, {"measurement": "Antibiotic MICs", "setting": "Klebsiella pneumoniae; isolate Kp_8", "value": ">32", "unit": "µg/mL"}]}
{"compound": "C[C@@H](O)[C@H]1C(=O)N2C(C(=O)O)=C(S[C@@H]3CN[C@H](C(=O)N(C)C)C3)[C@H](C)[C@H]12", "note": "[meropenem]", "values": [{"measurement": "average percentage of DNA released from susceptible isolates", "setting": "E. coli isolates [1]", "value": 21, "unit": "%"}]}
{"compound": "C[C@@H](O)[C@H]1C(=O)N2C(C(=O)O)=C(S[C@@H]3CN[C@H](C(=O)Nc4cccc(C(=O)O)c4)C3)[C@H](C)[C@H]12", "note": "[ETP, ertapenem]", "values": [{"measurement": "average percentage of DNA released from susceptible isolates", "setting": "E. coli isolates [1]", "value": 15, "unit": "%"}, {"measurement": "time-to-positive difference (TTPD) between control and treated aliquots, LAMP", "setting": "E. coli isolates [2]; susceptible E. coli isolate", "value": 1.02, "unit": "min"}, {"measurement": "difference in Cq between control and treated samples, qPCR", "setting": "E. coli isolates [2]; two susceptible and two resistant E. coli isolates", "value": "none of which showed a statistically significant difference in Cq"}, {"measurement": "Antibiotic MICs", "setting": "Escherichia coli; isolate Ec_1", "value": "<=.5 μg/mL"}, {"measurement": "Antibiotic MICs", "setting": "Escherichia coli; isolate Ec_2", "value": "<=.5 μg/mL"}, {"measurement": "Antibiotic MICs", "setting": "Escherichia coli; isolate Ec_3", "value": "<=.5 μg/mL"}, {"measurement": "Antibiotic MICs", "setting": "Escherichia coli; isolate Ec_4", "value": "<=.5 μg/mL"}, {"measurement": "Antibiotic MICs", "setting": "Escherichia coli; isolate Ec_38", "value": ">4", "unit": "µg/mL"}, {"measurement": "Antibiotic MICs", "setting": "Escherichia coli; isolate Ec_39", "value": 2, "unit": "µg/mL"}, {"measurement": "Antibiotic MICs", "setting": "Escherichia coli; isolate Ec_40", "value": 2, "unit": "µg/mL"}, {"measurement": "Antibiotic MICs", "setting": "Escherichia coli; isolate Ec_41", "value": 2, "unit": "µg/mL"}, {"measurement": "Antibiotic MICs", "setting": "Klebsiella pneumoniae; isolate Kp_1", "value": "<=.5 μg/mL"}, {"measurement": "Antibiotic MICs", "setting": "Klebsiella pneumoniae; isolate Kp_2", "value": "<=.5 μg/mL"}, {"measurement": "Antibiotic MICs", "setting": "Klebsiella pneumoniae; isolate Kp_7", "value": ">8", "unit": "µg/mL"}, {"measurement": "Antibiotic MICs", "setting": "Klebsiella pneumoniae; isolate Kp_8", "value": ">8", "unit": "µg/mL"}]}
